Test results from patent US20080031866A1, “METHOD FOR MODULATING THE PHARMACOKINETICS AND METABOLISM OF A THERAPEUTIC AGENT” (priority 2006, published 2008).
Where two headings read alike, the source gives them in different places. Blank lines part the entries; values can stand above or below the compound they belong to.

Assay: Oral gavage pharmacokinetics, jugular and portal vein sampling, first pass metabolism
Type: in vivo, rat
Details: for Ratio of metabolite to Compound 1: jugular vein; for Ratio of metabolite to Compound 1 / Mean ratio of metabolite to Compound 1: oral gavage; for AUC: po, 75 mg/kg; for AUC / concentration at 0 h / concentration at 0.08 h / concentration at 0.25 h / concentration at 0.33 h / concentration at 0.5 h / concentration at 0.67 h / concentration at 1 h / concentration at 1.25 h / concentration at 1.5 h / concentration at 2 h / concentration at 3 h / concentration at 4 h / concentration at 6 h / concentration at 12 h / concentration at 24 h / Cmax: rats N=4; for AUC / concentration at 0 h / concentration at 0.08 h / concentration at 0.25 h / concentration at 0.33 h / concentration at 0.5 h / concentration at 0.67 h / concentration at 1 h / concentration at 1.25 h / concentration at 1.5 h / concentration at 2 h / concentration at 3 h / concentration at 4 h / concentration at 6 h / concentration at 12 h / concentration at 24 h / Cmax / Tmax: Compound 1 75 mg/kg oral gavage; for Cmax: read-out: Cmax average ± standard deviation; for Tmax: rats; for Mean ratio of metabolite to Compound 1: portal system
Experimental: Two separate IV studies were carried out using two separate lots of animals. IV-A was run on the same lot of animals as the oral gavage study and IV-B was run on the same lot of animals as the intraduodenal and intra-colonic studies.
For the oral gavage dosing, Compound 1 was prepared in neat PEG-400. For the intraduodenal and intracolonic dosing solutions, Compound 1 was added to neat Tween 80, the mixture was sonicated for thirty minutes at 45° C. until Compound 1 was completely dissolved and then deionized (DI) water was added to form a solution consisting of 20% Tween 80 and 80% DI water by weight.
For the IV and oral gavage dosing (sampling at jugular and portal vein), young adult male Sprague Dawley rats weighing 250-400 g were purchased from Hilltop Lab Animals Inc. All rat experiments were conducted under approved animal protocols. The rats for the oral gavage dosing were catheterized at Hilltop Lab Animals Inc, had two chronic catheters for sampling: jugular and portal, were housed in cages of Culex™ Automated Blood Sampler (ABS) and blood samples were collected simultaneously via both cannula and were controlled by the Culex™ ABS control software.
A quantitative method for determining the amount of (6,7-dimethoxy-2,4-dihydro-indeno[1,2-c]pyrazol-3-yl)-(3-fluoro-phenyl)-amine Compound 1 and its major metabolites, glucuronide A (Cpd 1-GluA) and glucuronide B (Cpd 1-GluB) (see Scheme A) in rat plasma was developed using phenacetin as an internal standard. [drawing 1]
The two glucuronide conjugates were prepared and purified to permit accurate quantification of the levels of intact parent Compound 1 versus Cpd 1-GluA and Cpd 1-GluB. Each standard curve for Compound 1, Cpd 1-GluA, and Cpd 1-GluB generated from rat plasma included ten concentration levels. […] The quantitative procedure for each sample included: sample preparation, HPLC separation and mass spectrometry detection.
The rat plasma was prepared using protein precipitation techniques. Reference standards and quality control samples in rat plasma for Compound 1 were transferred to a 96 deep-well plate. The precipitation solution contained 100 ng/ml of internal standard in acetonitrile. 300 μl of precipitation solution were added to 100 μl of each standard, quality control and plasma sample. Samples were vortexed for 10 mins, then centrifuged at 4500 RPM for 10 mins. 10 μl of each sample were injected for LC/MS/MS analysis.
The HPLC column chosen for the bioanalysis was purchased from Thermo Electron (Hypersil BetaBasic C18, 5 cm×2.1 mm). The eluting solvents were composed of Solvent A: 0.1% formic acid in H2O and Solvent B: 0.1% formic acid in acetonitrile. A step gradient was used and flow rate was 300 μl/min. The total run time was 3.2 mins. Solvent B was increased from 35% at 0 min to 75% at 2.1 mins and decreased back to 35% at 2.2 mins. The retention times for Compound 1, phenacetin, Cpd 1-GluA and Cpd 1-GluB were 1.1 min, 0.9 min, 1.3 min, and 1.6 min, respectively.
API3000 with a Turbo Ionspray interface from Applied Biosystems was used for the detection of Compound 1, the internal standard and major metabolites. Electrospray ionization was performed in the positive ion mode heated nebulizer with a temperature of 300° C. LC/MS/MS chromatograms were acquired in MRM (multiple reaction mode). The MRM transitions for Compound 1, the internal standard, Cpd 1-GluA and Cpd 1-GluB were from 326.3 to 190.6, 181.1 to 110.3, 502.2 to 368.3 and 502.2 to 326.4, respectively. […]

[1] = male, Sprague Dawley, rat, plasma (jugular vein sample), jugular sample, read-out: AUC average ± standard deviation 0 to 24 hours
[2] = male, Sprague Dawley, rat, plasma (jugular vein sample), jugular sample, read-out: AUC average ± standard deviation 0 to infinite hours
[3] = male, Sprague Dawley, rat, plasma (jugular vein sample), jugular sample
[4] = male, Sprague Dawley, rat, plasma (portal vein sample), portal sample
[5] = male, Sprague Dawley, rat, plasma
[6] = male, Sprague Dawley, rat, portal vein plasma, portal sample, read-out: AUC average ± standard deviation 0 to 24 hours
[7] = male, Sprague Dawley, rat, portal vein plasma, portal sample, read-out: AUC average ± standard deviation 0 to infinite hours
[8] = male, Sprague Dawley, rat, portal vein plasma, portal sample

SMILES: COc1cc2c(cc1OC)-c1nn(C3OC(C(=O)O)C(O)C(O)C3O)c(Nc3cccc(F)c3)c1C2 (stereo in doubt) [Cpd 1-GluB]
Ratio of metabolite to Compound 1: 1
AUC [1]: 1710 ng·h/mL
AUC [2]: 2180 ng·h/mL
concentration at 0 h [3]: 0 ng/mL
concentration at 0.08 h [3]: 37.8 ng/mL
concentration at 0.25 h [3]: 169 ng/mL
concentration at 0.33 h [3]: 233 ng/mL
concentration at 0.5 h [3]: 223 ng/mL
concentration at 0.67 h [3]: 244 ng/mL
concentration at 1 h [3]: 230 ng/mL
concentration at 1.25 h [3]: 178 ng/mL
concentration at 1.5 h [3]: 169 ng/mL
concentration at 2 h [3]: 141 ng/mL
concentration at 3 h [3]: 90 ng/mL
concentration at 4 h [3]: 51.4 ng/mL
concentration at 6 h [3]: 71.3 ng/mL
concentration at 12 h [3]: 86.5 ng/mL
concentration at 24 h [3]: 29 ng/mL
Cmax [3]: 268 ± 52 ng/mL
concentration at 0.67 h [4]: 290 ng/mL
concentration at 1 h [4]: 164 ng/mL
concentration at 1.25 h [4]: 183 ng/mL
concentration at 1.5 h [4]: 151 ng/mL
concentration at 2 h [4]: 142 ng/mL
concentration at 3 h [4]: 105 ng/mL
concentration at 4 h [4]: 79.5 ng/mL
concentration at 6 h [4]: 120 ng/mL
concentration at 12 h [4]: 87.2 ng/mL
Tmax [5]: 30 min
AUC [6]: 1960 ng·h/mL
AUC [7]: 2490 ng·h/mL
concentration at 0 h [8]: 0 ng/mL
concentration at 0.08 h [8]: 82.8 ng/mL
concentration at 0.25 h [8]: 215 ng/mL
concentration at 0.33 h [8]: 263 ng/mL
concentration at 0.5 h [8]: 192 ng/mL
concentration at 24 h [8]: 39.9 ng/mL
Cmax [8]: 324 ± 129 ng/mL
Mean ratio of metabolite to Compound 1: 0.2

Local absorption ratio (Fa) (Compound 1 75 mg/kg oral, Equation (2)): 48±18%
Hepatic recovery ratio (Fh) (Equation (3)): 40%
Extent of first pass metabolism (gut): 52%
Extent of first pass metabolism (liver): 60%
AUC [1]: 2340 ng·h/mL
AUC [2]: 2410 ng·h/mL
concentration at 0 h [3]: 6.7 ng/mL
concentration at 0.08 h [3]: 447 ng/mL
concentration at 0.25 h [3]: 2120 ng/mL
concentration at 0.33 h [3]: 1770 ng/mL
concentration at 0.5 h [3]: 1220 ng/mL
concentration at 0.67 h [3]: 626 ng/mL
concentration at 1 h [3]: 442 ng/mL
concentration at 1.25 h [3]: 465 ng/mL
concentration at 1.5 h [3]: 409 ng/mL
concentration at 2 h [3]: 378 ng/mL
concentration at 3 h [3]: 127 ng/mL
concentration at 4 h [3]: 61.3 ng/mL
concentration at 6 h [3]: 51.1 ng/mL
concentration at 12 h [3]: 22.8 ng/mL
concentration at 24 h [3]: 7.7 ng/mL
Cmax [3]: 2120 ng/mL
concentration at 0.67 h [4]: 2300 ng/mL
concentration at 1 h [4]: 346 ng/mL
concentration at 1.25 h [4]: 972 ng/mL
concentration at 1.5 h [4]: 465 ng/mL
concentration at 2 h [4]: 1880 ng/mL
concentration at 3 h [4]: 336 ng/mL
concentration at 4 h [4]: 398 ng/mL
concentration at 6 h [4]: 1010 ng/mL
concentration at 12 h [4]: 250 ng/mL
bioavailability (male, Sprague Dawley, rat, plasma, Compound 1 75 mg/kg oral, read-out: Systemic oral bioavailability): 19 ± 5%
Tmax [5]: 15 min
AUC [6]: 11900 ng·h/mL
AUC [7]: 12500 ng·h/mL
concentration at 0 h [8]: 2.4 ng/mL
concentration at 0.08 h [8]: 7520 ng/mL
concentration at 0.25 h [8]: 4250 ng/mL
concentration at 0.33 h [8]: 3880 ng/mL
concentration at 0.5 h [8]: 873 ng/mL
concentration at 24 h [8]: 224 ng/mL
Cmax [8]: 8690 ng/mL
Plasma level of Compound 1 relative to level of the metabolites (oral administration): 6%
SMILES: COc1cc2c(cc1OC)-c1n[nH]c(Nc3cccc(F)c3)c1C2 [Compound 1, (6,7-dimethoxy-2,4-dihydro-indeno[1,2-c]pyrazol-3-yl)-(3-fluoro-phenyl)-amine]

SMILES: COc1cc2c(cc1OC)-c1n[nH]c(N(c3cccc(F)c3)[C@H]3O[C@@H](C(=O)O)[C@H](O)[C@@H](O)[C@@H]3O)c1C2 [Cpd 1-GluA]
Ratio of metabolite to Compound 1: 78
AUC [1]: 117000 ng·h/mL
AUC [2]: 169000 ng·h/mL
concentration at 0 h [3]: 2.2 ng/mL
concentration at 0.08 h [3]: 2570 ng/mL
concentration at 0.25 h [3]: 12400 ng/mL
concentration at 0.33 h [3]: 16100 ng/mL
concentration at 0.5 h [3]: 15700 ng/mL
concentration at 0.67 h [3]: 14700 ng/mL
concentration at 1 h [3]: 14300 ng/mL
concentration at 1.25 h [3]: 11700 ng/mL
concentration at 1.5 h [3]: 11700 ng/mL
concentration at 2 h [3]: 11100 ng/mL
concentration at 3 h [3]: 6480 ng/mL
concentration at 4 h [3]: 3750 ng/mL
concentration at 6 h [3]: 4290 ng/mL
concentration at 12 h [3]: 5170 ng/mL
concentration at 24 h [3]: 2470 ng/mL
Cmax [3]: 17600 ng/mL
concentration at 0.67 h [4]: 26000 ng/mL
concentration at 1 h [4]: 11700 ng/mL
concentration at 1.25 h [4]: 15100 ng/mL
concentration at 1.5 h [4]: 12200 ng/mL
concentration at 2 h [4]: 14700 ng/mL
concentration at 3 h [4]: 10700 ng/mL
concentration at 4 h [4]: 7500 ng/mL
concentration at 6 h [4]: 11600 ng/mL
concentration at 12 h [4]: 8000 ng/mL
Tmax [5]: 54 min
AUC [6]: 190000 ng·h/mL
AUC [7]: 271000 ng·h/mL
concentration at 0 h [8]: 1.3 ng/mL
concentration at 0.08 h [8]: 9460 ng/mL
concentration at 0.25 h [8]: 18900 ng/mL
concentration at 0.33 h [8]: 22400 ng/mL
concentration at 0.5 h [8]: 17400 ng/mL
concentration at 24 h [8]: 5070 ng/mL
Cmax [8]: 29200 ng/mL
Systemic exposure of Glu A relative to Glu B (oral gavage dosing): ~66 times
Mean ratio of metabolite to Compound 1: 20
